Test results taken from ChEMBL document CHEMBL1130465, “Peptidic prodrugs of novel aminomethyl-THF 1-methylcarbapenems” (1997).
≈ marks a conversion by molar mass, not a printed value.

How the values were obtained:
Format in all cases: functional
Staphylococcus aureus [1] = assay: In vitro antimicrobial activity against Staphylococcus aureus GC 2220 strain
Citrobacter freundii = assay: In vitro antimicrobial activity against Citrobacter freundii GC 2211 strain
Enterobacter cloacae = assay: In vitro antimicrobial activity against Enterobacter cloacae GC 2209 strain
Mus musculus [2] = assay: Tested for oral activity against Staphylococcus aureus smith infection in mice after single subcutaneous dose(SSC)
Mus musculus [3] = assay: Tested for oral activity against Staphylococcus aureus smith infection in mice after single oral dose(SOD)
Escherichia coli [4] = assay: In vitro antimicrobial activity against Escherichia coli GC 1792 strain
Enterococcus faecalis = assay: In vitro antimicrobial activity against Enterococcus faecalis GC 842 strain
Staphylococcus aureus [5] = assay: In vitro antimicrobial activity against Staphylococcus aureus ATCC 29213 strain
[6] = test system: Stenotrophomonas maltophilia; assay: In vitro antimicrobial activity against Xanthomonas maltophilia GC 562 strain
Morganella morganii = assay: In vitro antimicrobial activity against Morganella morganii GC 2213 strain
[7] = Ratio of ED50 of single oral dose to ED50 of single subcutaneous dose against Staphylococcus aureus smith infection in mice
Escherichia coli [8] = assay: In vitro antimicrobial activity against Escherichia coli GC 2205 strain
Mus musculus [9] = species on record: Mus musculus; assay: animal or person
Description: Tested for oral activity against Escherichia coli #311 infection in mice after single oral dose(SOD)

Enterococcus faecium = assay: In vitro antimicrobial activity against Enterococcus faecium GC 1182 strain
[10] = test system: Acinetobacter calcoaceticus; assay: In vitro antimicrobial activity against Acinetobacter calcoaceticus GC 756 strain
Escherichia coli [11] = assay: In vitro antimicrobial activity against Escherichia coli ATCC 25922 strain
Pseudomonas aeruginosa [12] = assay: In vitro antimicrobial activity against Pseudomonas aeruginosa ATCC 27853 strain
Mus musculus [13] = species on record: Mus musculus; assay: animal or person; remark: listed apart in the source
Description: Tested for oral activity against Escherichia coli #311 infection in mice after single subcutaneous dose(SSC)

Pseudomonas aeruginosa [14] = assay: In vitro antimicrobial activity against Pseudomonas aeruginosa GC 1544 strain
[15] = Staphylococcus aureus, read-out: MIC
[16] = Citrobacter freundii, read-out: MIC
[17] = Mus musculus, po, read-out: ED50
[18] = Escherichia coli, read-out: MIC
[19] = Enterococcus faecalis, read-out: MIC
[20] = Morganella morganii, read-out: MIC
[21] = Enterococcus faecium, read-out: MIC
[22] = Acinetobacter calcoaceticus, read-out: MIC
[23] = Pseudomonas aeruginosa, ATCC 27853, read-out: MIC
[24] = Pseudomonas aeruginosa, read-out: MIC

Row | Compound | MIC (Staphylococcus aureus [1]; [15]) [µg/mL] | MIC (Citrobacter freundii; [16]) [µg/mL] | MIC (Escherichia coli [4]; [18]) [µg/mL] | MIC (Enterococcus faecalis; [19]) [µg/mL] | MIC (Staphylococcus aureus [5]) [µg/mL] | MIC [6] [µg/mL] | MIC (Morganella morganii; [20]) [µg/mL] | MIC (Escherichia coli [8]) [µg/mL] | MIC (Enterococcus faecium; [21]) [µg/mL] | MIC [10, 22] [µg/mL] | MIC (Escherichia coli [11]) [µg/mL] | MIC (Pseudomonas aeruginosa [12]; [23]) [µg/mL] | MIC (Pseudomonas aeruginosa [14]; [24]) [µg/mL] | MIC (Enterobacter cloacae) [µg/mL] | ED50 (Mus musculus [2]; Mus musculus, read-out: ED50) [mg/kg] | ED50 (Mus musculus [3]; [17]) [mg/kg] | Ratio [7] | ED50 (Mus musculus [9]; [17]) [mg/kg] | ED50 (Mus musculus [13]; Mus musculus, read-out: ED50) [mg/kg] | also measured
1 | C[C@H]1C(SC2COC(CN)C2)=C(C(=O)O)N2C(=O)[C@H]([C@@H](C)O)C12 (stereo in doubt; cis) |  |  |  |  |  |  |  |  |  |  |  |  |  |  |  |  | 22 |  |  | MIC (Staphylococcus aureus [1]): 4 µg/mL (≈ 11.7 µM); MIC (Citrobacter freundii): <0.06 µg/mL; ED50 (Mus musculus [2]): 0.05 mg/kg; ED50 (Mus musculus [3]): 1.1 mg/kg; MIC (Escherichia coli [4]): <0.06 µg/mL; MIC (Enterococcus faecalis): 2 µg/mL (≈ 5.84 µM); MIC (Morganella morganii): 0.5 µg/mL (≈ 1.46 µM); ED50 (Mus musculus [9]): 3.5 mg/kg; MIC (Enterococcus faecium): 128 µg/mL (≈ 374 µM); MIC [10]: 20 µg/mL (≈ 58.4 µM); MIC (Pseudomonas aeruginosa [12]): 8 µg/mL (≈ 23.4 µM); ED50 (Mus musculus [13]): 0.28 mg/kg; MIC (Pseudomonas aeruginosa [14]): 16 µg/mL (≈ 46.7 µM)
2 | C[C@@H](N)C(=O)NC[C@H]1OCC[C@H]1SC1=C(C(=O)O)N2C(=O)[C@H]([C@@H](C)O)C2[C@H]1C (stereo partly drawn) | 8 (≈ 19.3 µM) | 1 (≈ 2.42 µM) | ≤ 0.06 | 4 (≈ 9.67 µM) | 0.12 (≈ 0.29 µM) | > 128 | 1 (≈ 2.42 µM) | ≤ 0.06 | > 128 | 16 (≈ 38.7 µM) | ≤ 0.06 | 32 (≈ 77.4 µM) | 64 (≈ 155 µM) | 0.25 (≈ 0.605 µM) | 0.04 | 0.09 | 2.2 | 0.55 | 0.28 | 
3 | C[C@@H](O)[C@H]1C(=O)N2C(C(=O)O)=C(SCCNC=N)C[C@H]12.O [IMIPENEM] | 1 | 0.25 | < 0.06 | 1 | < 0.06 | > 128 | 1 | 0.12 | 64 | 0.25 | 0.12 | 1 | 16 | < 0.06 |  |  |  |  |  | 

More lines, main results first:

Row | MIC (Staphylococcus aureus [1]; [15]) [µg/mL] | MIC (Citrobacter freundii; [16]) [µg/mL] | MIC (Escherichia coli [4]; [18]) [µg/mL] | MIC (Enterococcus faecalis; [19]) [µg/mL] | MIC (Staphylococcus aureus [5]) [µg/mL] | MIC [6] [µg/mL] | MIC (Morganella morganii; [20]) [µg/mL] | MIC (Escherichia coli [8]) [µg/mL] | MIC (Enterococcus faecium; [21]) [µg/mL] | MIC [10, 22] [µg/mL] | MIC (Escherichia coli [11]) [µg/mL] | MIC (Pseudomonas aeruginosa [12]; [23]) [µg/mL] | MIC (Pseudomonas aeruginosa [14]; [24]) [µg/mL] | Compound | MIC (Enterobacter cloacae) [µg/mL] | ED50 (Mus musculus [2]; Mus musculus, read-out: ED50) [mg/kg] | ED50 (Mus musculus [3]; [17]) [mg/kg] | Ratio [7] | ED50 (Mus musculus [9]; [17]) [mg/kg] | ED50 (Mus musculus [13]; Mus musculus, read-out: ED50) [mg/kg] | also measured
4 | 4 (≈ 8.17 µM) | 8 (≈ 16.3 µM) | 0.5 (≈ 1.02 µM) | 1 (≈ 2.04 µM) | 0.25 (≈ 0.511 µM) | > 128 | 4 (≈ 8.17 µM) | 0.03 (≈ 0.0613 µM) | 128 (≈ 261 µM) | 64 (≈ 131 µM) | 0.25 (≈ 0.511 µM) | 64 (≈ 131 µM) | 128 (≈ 261 µM) | C[C@H]1C(S[C@@H]2CCO[C@@H]2CNC(=O)[C@H](N)Cc2ccccc2)=C(C(=O)O)N2C(=O)[C@H]([C@@H](C)O)C12 (stereo partly drawn) | 4 (≈ 8.17 µM) | 0.06 | 0.28 | 4.7 | 1.2 | 0.48 | 
5 | 8 (≈ 20 µM) | 0.5 (≈ 1.25 µM) | < 0.06 | 2 (≈ 5.01 µM) | 0.12 (≈ 0.3 µM) | > 128 | 0.5 (≈ 1.25 µM) | < 0.06 | > 128 | 8 (≈ 20 µM) | < 0.06 | 8 (≈ 20 µM) | 64 (≈ 160 µM) | C[C@H]1C(S[C@@H]2CCO[C@@H]2CNC(=O)CN)=C(C(=O)O)N2C(=O)[C@H]([C@@H](C)O)C12 (stereo partly drawn) | < 0.06 | 0.15 | 0.41 | 2.7 | 1.4 | 0.56 | 
6 | 32 (≈ 70.2 µM) | 4 (≈ 8.78 µM) | 0.25 (≈ 0.549 µM) | 2 (≈ 4.39 µM) | 0.25 (≈ 0.549 µM) | > 128 | 2 (≈ 4.39 µM) | ≤ 0.06 | > 128 | 64 (≈ 140 µM) | ≤ 0.06 | 64 (≈ 140 µM) | 128 (≈ 281 µM) | CC[C@@H](C)[C@@H](N)C(=O)NC[C@H]1OCC[C@H]1SC1=C(C(=O)O)N2C(=O)[C@H]([C@@H](C)O)C2[C@H]1C (stereo partly drawn) |  | 0.28 | 0.21 | 0.75 | 0.58 | 1.1 | 
